Test results taken from ChEMBL document CHEMBL2074035, “Identification of the hepatic efflux transporters of organic anions using double-transfected Madin-Darby canine kidney II cells expressing human organic anion-transporting polypeptide 1B1 (OATP1B1)/multidrug resistance-associated protein 2, OATP1B1/multidrug resistance 1, and OATP1B1/breast cancer …” (J Pharmacol Exp Ther, 2005).

How the values were obtained:
[1] = target: T1, Broad substrate specificity ATP-binding cassette transporter ABCG2 (Homo sapiens, UniProt Q9UNQ0); assay: TP_TRANSPORTER: Transepithelial Transport (basal to apical) in OATP1B1/BCRP double transfected MDCKII cells; type: functional, cell-based; conditions: dog, mdck-ii
T1 sequence (Q9UNQ0 whole entry): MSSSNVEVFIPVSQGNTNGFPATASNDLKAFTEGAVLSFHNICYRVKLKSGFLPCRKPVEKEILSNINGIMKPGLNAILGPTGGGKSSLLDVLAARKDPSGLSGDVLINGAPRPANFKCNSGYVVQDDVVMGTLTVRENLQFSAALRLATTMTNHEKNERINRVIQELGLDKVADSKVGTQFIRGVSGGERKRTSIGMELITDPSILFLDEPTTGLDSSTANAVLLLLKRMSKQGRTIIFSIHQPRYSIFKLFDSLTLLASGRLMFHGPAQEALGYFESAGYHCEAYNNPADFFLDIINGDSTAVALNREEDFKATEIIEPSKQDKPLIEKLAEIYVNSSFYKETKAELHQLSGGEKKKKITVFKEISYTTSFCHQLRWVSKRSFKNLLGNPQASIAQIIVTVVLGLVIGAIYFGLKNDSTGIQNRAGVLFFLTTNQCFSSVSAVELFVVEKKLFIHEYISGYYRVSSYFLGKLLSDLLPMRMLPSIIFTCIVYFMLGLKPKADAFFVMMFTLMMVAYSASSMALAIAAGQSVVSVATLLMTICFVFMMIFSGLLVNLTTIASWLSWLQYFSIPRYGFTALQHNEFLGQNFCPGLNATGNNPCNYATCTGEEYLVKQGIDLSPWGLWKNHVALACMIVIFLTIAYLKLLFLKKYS

[2] = target: Canalicular multispecific organic anion transporter 1/Solute carrier organic anion transporter family member 1B1 (Homo sapiens, UniProt Q92887+Q9Y6L6); assay: TP_TRANSPORTER: Transepithelial Transport (basal to apical) in OATP1B1/MRP2 double transfected MDCKII cells; type: functional, cell-based; conditions: dog, mdck-ii

| Structure (SMILES) | Activity [1] | Activity [2] |
| --- | --- | --- |
| C[C@]12CC[C@@H]3c4ccc(O)cc4CC[C@H]3[C@@H]1CC[C@@H]2O[C@@H]1O[C@H](C(=O)O)[C@@H](O)[C@H](O)[C@H]1O [ESTRADIOL 17B GLUCURONIDE] | substrate [(+)] | substrate [(+)] |
| C[C@]12CC[C@@H]3c4ccc(OS(=O)(=O)O)cc4CC[C@H]3[C@@H]1CCC2=O [ESTRONE SULFURIC ACID] | substrate [(+)] | substrate [(+)] |
| CC[C@H](C)C(=O)O[C@H]1C[C@H](O)C=C2C=C[C@H](C)[C@H](CC[C@@H](O)C[C@@H](O)CC(=O)O)[C@H]21 [PRAVASTATIN] | substrate [(+)] | substrate [(+)] |
